Values joined by “and” are separate entries in the source; they are usually repeats but may differ in a detail not shown here. Equal entries are not always repeated. Ends that are not written are not given here.
Key:
L6 myotubes = test: 2-deoxyglucose uptake in L6 myotubes; assay type: cell-based
Protocol: L6 myoblast cells were transfected with pCXN2-GLUT4myc (27), or co-transfected with pCXN2-GLUT4myc and pcDNA.P20, using Lipofectamine Plus reagent according to the manufacturer's instructions. Stable transfectants were selected in medium containing the neomycin analogue G418 at 400 μg/ml. At 10 days after transfection, the clones were selected using sterilised steel rings and expanded separately in the presence of G418. Clones that express P20 and myc-tagged GLUT4 were chosen by western blotting and used for further experiments.
L6 cells stably overexpressing myc-tagged GLUT4, or myc-tagged GLUT4 plus P20, were grown in 6-well plates and differentiated into myotubes in DMEM containing 2% fetal bovine serum for 7 days. The cells were deprived of serum for 16 h prior to experiments. For glucose uptake assays, L6 myotubes were rinsed three times with Krebs-Henseleit buffer (KHB) and incubated in KHB with or without hormones (insulin or insulin plus amylin) at the indicated concentrations for 15 min at 37° C. Carrier-mediated glucose uptake of 10 μM 2-deoxy-D-[^3H] glucose in the above solution was measured for 15 min at 37° C. This was followed by rinsing the cells three times with ice-cold PBS and cell disruption with 0.1 N NaOH. The associated radioactivity was determined by liquid scintillation counting. The protein concentration was measured with a BCA protein quantitation kit (PIERCE). The nonspecific uptake was determined in the presence of 10 μM cytochalasin B and subtracted from each value.

P20 [1] = test: Phosphorylation of P20 isoforms in 32P-labelled rat EDL muscle strips (2-DE, phosphorimaging); assay type: cell-based; conditions: for radioactivity of P20 isoform S1 / radioactivity of P20 isoform S2 / radioactivity of P20 isoform S3: hormones 50 nM, 30 min, n=4
Protocol: Rat extensor digitorum longus (EDL) muscle strips were prepared from 18 h-fasted rats. Dissection and isolation of muscles were carried out under anaesthesia with pentobarbital (5-7 mg/100 g of body weight, intraperitoneally) as described previously (23). Each muscle was split into three ˜1 mm width strips. Muscle strips were pre-incubated in a shaking incubator at 30° C. for 1 h in 5 ml of Dulbecco's Modified Eagle's medium without sodium phosphate. All incubation media were gassed with a mixture of 95% O2 and 5% CO2. The muscle strips were subsequently transferred to similar flasks containing identical medium plus 0.25 mCi/ml [^32P]-orthophosphate and incubated for a further 4 h to equilibrate the internal ATP pool (23, 24). Human insulin, rat amylin, epinephrine or CGRP were then added to the incubation media for 30 min at stated final concentrations. Reactions were terminated by freezing muscle strips in liquid nitrogen immediately after incubation. Muscle strips were then weighed and stored at −80° C. until further analysis.
Muscle strips were homogenized in 2-DE lysis buffer (9M urea, 2% v/v triton X-100, 2% v/v pharmalyte pH 3-10, 200 mM DTT, 8 mM PMSF) for 5 min on ice. The lysates were briefly sonicated and microcentrifuged at 12,000 rpm for 10 min to remove debris. Protein concentrations were determined by the Bradford method and radioactivity was measured by liquid scintillation counting. ^32P-labelled lysates with equivalent amounts of radioactivity were isoelectrically focused on IPG Drystrip pH 4-7 and pH 3-10 Linear gels using a multiphor RII electrophoresis system according to the manufacturer's instructions. Second dimensional SDS-PAGE was carried out using ExcelGel™ precast 12-14% acrylamide gradient gels. After electrophoresis the gels were fixed in 10% glacial acetic acid, 40% ethanol and the proteins visualized by phosphorimaging or autoradiography.
Autoradiography films were scanned and digitised using a Sharp JX-325 scanner, and protein spots detected, quantitated and analysed using the Melanie II software package, ver. 2.2 (Biorad). The detection parameters were: smooth 2, Laplacian threshold 3, partials threshold 1, saturation 90, peakedness increase 100 and minimum perimeter 10. The matching of multiple features to one feature was not allowed. The pixel value is the optical density (OD). Features were calculated as a percentage of the sum of VOL (the feature's volume, i.e., the integration of OD over the feature's area) for all features on the gel. The radioactivity of protein spots was also detected by a phosphorimager and analysed by MacBAS v2.5 software. […] All the results presented are based on at least three independent experiments. Statistical analysis was performed using the t-test (paired two sample).

Male Wistar rats = assay type: in vivo, rat
Protocol: (§1) All experimental protocols were approved by the Institutional Animal Ethics Committee. Male Wistar rats were injected with dexamethasone (3.1 mg/kg/day, intraperitoneally) for 7 days. The daily weights of rats in both control and dexamethasone-treated groups were monitored. […] Rats were fasted for 18 h prior to each experiment and were killed by cervical dislocation. Blood was obtained by cardiac puncture from anesthetized animals. The mean blood glucose concentration was 5.4±0.2 mM and 10.8±0.6 mM in control and dexamethasone-treated rats, respectively, as measured with a YSI 2300STAT glucose/lactate analyser (Yellow Springs Instruments). […] Insulin and amylin concentrations in the blood of normal and insulin resistant rats were determined as described (17). Rats with insulin resistance induced by chronic high fat feeding were generated as described previously (26).

skeletal muscle = test: In vitro [14C(U)]-D-glucose incorporation assay in skeletal muscle (insulin-stimulated glycogen synthesis); assay type: cell-based, rat; conditions: muscle of dexamethasone-treated rats
Protocol: as §1

P20 [2] = test: P20 mRNA (northern blot) and protein (western blot) in EDL muscle; assay type: cell-based, rat; conditions: dexamethasone-injected rats or strips with 50 nM amylin 30 min
Protocol: About 50 μg proteins from liver, heart, epididymal fat pad, aortic smooth muscle, EDL muscle, soleus muscle tissues and whole blood obtained from 18 h-fasted male Wistar rats were separated by SDS-PAGE and subsequently transferred to nitrocellulose membranes. The membranes were blocked over night at 4° C. and then incubated with rabbit anti-P20 polyclonal antibody (1:1000) for 2 h at room temperature. After incubation with streptavidin-biotinylated horseradish peroxidase-conjugated secondary antibody for another 1 h at room temperature, the proteins immunoreactive to the primary antibody were visualised by enhanced chemiluminescence (ECL) detection according to the manufacturer's instructions.
Total cellular RNA was isolated from EDL muscle of 18 h-fasted control and dexamethasone-treated rats using TRIZOL reagent. 15 μg of RNA from each sample was separated by 1.5% agarose-formaldehyde gel electrophoresis and subsequently transferred to Hybond-N^+ nylon membranes by capillary blotting in 20×SSC. The P20 cDNA probe was labelled with ^32P-dCTP using a random primer labelling system. […] Membranes were then washed, analysed using a phosphorimager and quantitated by MacBAS v2.5 software. For comparison, RNA samples from EDL muscle strips treated with or without 50 nM amylin were also analysed in parallel.

[3] = cells overexpressing both P20 and GLUT4myc vs GLUT4myc alone, n=4
[4] = EDL strips from dexamethasone-treated rats, basal = no hormone
[5] = EDL strips from non-diabetic control rats, mean ± SD

Compound	decrease of insulin-stimulated glucose uptake by P20 overexpression (L6 myotubes; [3])	increase of 2-deoxyglucose uptake over basal level (L6 myotubes; myotubes overexpressing GLUT4myc alone, 50 nM insulin)	effect on phosphorylation of S2 and S3 induced by epinephrine and CGRP (P20 [1]; 50 nM each, normal rats)	decrease of amylin-evoked phosphorylation of S3 (P20 [1]; 50 nM insulin plus 50 nM amylin vs amylin alone, normal rats)	radioactivity of P20 isoform S1 (P20 [1]; [4])	radioactivity of P20 isoform S2 (P20 [1]; [4])	radioactivity of P20 isoform S3 (P20 [1]; [4])	radioactivity of P20 isoform S1 (P20 [1]; [5])	radioactivity of P20 isoform S2 (P20 [1]; [5])	radioactivity of P20 isoform S3 (P20 [1]; [5])	effect on amylin-evoked phosphorylation of S2 and S3 (P20 [1]; diabetic (dexamethasone-treated) rats)	mean blood glucose concentration (Male Wistar rats; 3.1 mg/kg/day i.p. for 7 days, 18 h fasted)	fasted basal plasma concentration of amylin (Male Wistar rats; dexamethasone-treated rats)	fasted basal plasma concentration of insulin (Male Wistar rats; dexamethasone-treated rats)	signals of both S2 and S3, fold higher than control rats (P20 [1]; without hormone stimulation, dexamethasone 3.1 mg/kg/day i.p. for 7 days)	reduction in rates of insulin-stimulated glycogen synthesis (skeletal muscle)	decrease of insulin-stimulated glucose uptake (L6 myotubes; GLUT4myc alone, 50 nM insulin plus 50 nM amylin)	increase of the inhibitory effect of amylin by P20 overexpression (L6 myotubes; [3])	decrease of insulin-induced phosphorylation of S1 (P20 [1]; 50 nM insulin plus 50 nM amylin vs 50 nM insulin alone, normal rats)	P20 mRNA level and protein abundance (P20 [2])
Insulin: Human insulin was Actrapid from Novo Nordisk	41±3%	2.94±0.31 fold	no effect	73% and ~74%	843 PSL	96.6 PSL	92 PSL	831 ± 40 PSL	20.3 ± 3.4 PSL	13.3 ± 1.3 PSL	little affected	–	–	–	–	–	–	–	–	–
C[C@@H]1C[C@H]2[C@@H]3CCC4=CC(=O)C=C[C@]4(C)[C@@]3(F)[C@@H](O)C[C@]2(C)[C@@]1(O)C(=O)CO [Dexamethasone, dexamethasone]	–	–	–	–	439 PSL	102 PSL	98.6 PSL	–	–	–	–	10.8 ± 0.6 mM	144±17 pmol/1	789±94 pmol/1	about 5 fold	over 95%	–	–	–	–
Amylin: Rat amylin purchased from Bachem; hormone co-secreted with insulin from pancreatic islet β-cells (KCNTATCATQRLANFLVRSSNNLGPVLPPTNVGSNTY; ends and bridges not checked; cysteine pairing not given here; UniProt P12969 38-74, looked up)	–	–	–	–	181 PSL	280 PSL	208 PSL	191 ± 9 PSL	289 ± 20 PSL	226 ± 17 PSL	–	–	–	–	–	–	28%	24±2%	49%	not changed

Source: patent publication US6884575B2, “Phosphoprotein target for insulin and its antagonists” (Protemix Corporation Limited, priority 2001, dated 2005)
